Tested on: 313798-341-R-J2-PDC spheroids, viability
Assay: Anticancer human tumor 313798-341-R-J2-PDC patient-derived cervical squamous cell carcinoma cell line growth inhibition [PI3K]
Details: spheroids with HUVEC and MSC; for IC50: curve of first compound; for viability, T/C: stronger effect = lower value
Outline: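 Multi-cell spheroids combine tumor cells with HUVEC and human MSCs, treated with targeted agents alone or with inavolisib, alpelisib, duvelisib or copanlisib. Concentrations fall in half-log steps from at or near clinical Cmax, or from 10 microM where Cmax is unknown; viability read-out.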
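Also: spheroids exposed to compounds for seven days.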
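For viability, T/C in this document: 100% = DMSO vehicle control viability.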

With CC1(C)CCC(Nc2ncc(C(F)(F)F)c(-c3c[nH]c4c(P(C)(C)=O)c(C#N)ccc34)n2)CN1 (centres undefined) + CC(Nc1ccc2c(c1)OCCn1cc(N3C(=O)OCC3C(F)F)nc1-2)C(N)=O the IC50 (second compound 0.00316 µM) was 31.6 nM, the IC50 (second compound 0.01 µM) was < 31.6 nM and the IC50 (second compound 0.0316 µM) was < 31.6 nM. For the same compound, the IC50 (second compound 0.1 µM) was < 31.6 nM, the IC50 (second compound 0.316 µM) was < 31.6 nM and the IC50 (second compound 1 µM) was < 31.6 nM. For the same compound, the viability, T/C (second compound 0.00316 µM, first compound 0.0316 µM) was 53.1%, the viability, T/C (second compound 0.00316 µM, first compound 0.1 µM) was 45.8% and the viability, T/C (second compound 0.00316 µM, first compound 0.316 µM) was 42.4%. For the same compound, the viability, T/C (second compound 0.00316 µM, first compound 1 µM) was 48.7%, the viability, T/C (second compound 0.00316 µM, first compound 3.16 µM) was 51.6% and the viability, T/C (second compound 0.00316 µM, first compound 10 µM) was 29.3%. The viability, T/C (second compound 0.01 µM, first compound 0.0316 µM) was 49.6%, the viability, T/C (second compound 0.01 µM, first compound 0.1 µM) was 47.2% and the viability, T/C (second compound 0.01 µM, first compound 0.316 µM) was 46.1%. It also gave a viability, T/C (second compound 0.01 µM, first compound 1 µM) of 44.1%, a viability, T/C (second compound 0.01 µM, first compound 3.16 µM) of 49.4% and a viability, T/C (second compound 0.01 µM, first compound 10 µM) of 25.4%. For the same compound, the viability, T/C (second compound 0.0316 µM, first compound 0.0316 µM) was 45%, the viability, T/C (second compound 0.0316 µM, first compound 0.1 µM) was 40.9% and the viability, T/C (second compound 0.0316 µM, first compound 0.316 µM) was 37.9%. The viability, T/C (second compound 0.0316 µM, first compound 1 µM) was 38.6%, the viability, T/C (second compound 0.0316 µM, first compound 3.16 µM) was 41% and the viability, T/C (second compound 0.0316 µM, first compound 10 µM) was 29.1%. For the same compound, the viability, T/C (second compound 0.1 µM, first compound 0.0316 µM) was 36.7%, the viability, T/C (second compound 0.1 µM, first compound 0.1 µM) was 31.6% and the viability, T/C (second compound 0.1 µM, first compound 0.316 µM) was 31.1%. It also gave a viability, T/C (second compound 0.1 µM, first compound 1 µM) of 31.7%, a viability, T/C (second compound 0.1 µM, first compound 3.16 µM) of 30.9% and a viability, T/C (second compound 0.1 µM, first compound 10 µM) of 14.8%. For the same compound, the viability, T/C (second compound 0.316 µM, first compound 0.0316 µM) was 26.4%, the viability, T/C (second compound 0.316 µM, first compound 0.1 µM) was 25.3% and the viability, T/C (second compound 0.316 µM, first compound 0.316 µM) was 24.9%. For the same compound, the viability, T/C (second compound 0.316 µM, first compound 1 µM) was 23.1%, the viability, T/C (second compound 0.316 µM, first compound 3.16 µM) was 29.3% and the viability, T/C (second compound 0.316 µM, first compound 10 µM) was 8.87%. For the same compound, the viability, T/C (second compound 1 µM, first compound 0.0316 µM) was 21.1%, the viability, T/C (second compound 1 µM, first compound 0.1 µM) was 20.6% and the viability, T/C (second compound 1 µM, first compound 0.316 µM) was 21.5%. The viability, T/C (second compound 1 µM, first compound 1 µM) was 21.9%, the viability, T/C (second compound 1 µM, first compound 3.16 µM) was 23.9% and the viability, T/C (second compound 1 µM, first compound 10 µM) was 3.07%.
In the case of Cn1cnc2c(F)c(Nc3ccc(Br)cc3Cl)c(C(=O)NOCCO)cc21 + CC(Nc1ncnc2nc[nH]c12)c1cc2cccc(Cl)c2c(=O)n1-c1ccccc1, the IC50 (second compound 0.0316 µM) is reported as > 3000 nM, the IC50 (second compound 0.1 µM) is reported as > 3000 nM and the IC50 (second compound 0.316 µM) is reported as > 3000 nM. The IC50 (second compound 1 µM) was > 3000 nM, the IC50 (second compound 3.16 µM) was > 3000 nM and the IC50 (second compound 10 µM) was > 3000 nM. For the same compound, the viability, T/C (second compound 0.0316 µM, first compound 0.00949 µM) was 97.3%, the viability, T/C (second compound 0.0316 µM, first compound 0.03 µM) was 99% and the viability, T/C (second compound 0.0316 µM, first compound 0.0949 µM) was 92.1%. The viability, T/C (second compound 0.0316 µM, first compound 0.3 µM) was 91.4%, the viability, T/C (second compound 0.0316 µM, first compound 0.949 µM) was 89.2% and the viability, T/C (second compound 0.0316 µM, first compound 3 µM) was 77.9%. The viability, T/C (second compound 0.1 µM, first compound 0.00949 µM) was 85.7%, the viability, T/C (second compound 0.1 µM, first compound 0.03 µM) was 95.7% and the viability, T/C (second compound 0.1 µM, first compound 0.0949 µM) was 89%. For the same compound, the viability, T/C (second compound 0.1 µM, first compound 0.3 µM) was 95.2%, the viability, T/C (second compound 0.1 µM, first compound 0.949 µM) was 80% and the viability, T/C (second compound 0.1 µM, first compound 3 µM) was 81.3%. The viability, T/C (second compound 0.316 µM, first compound 0.00949 µM) was 87.2%, the viability, T/C (second compound 0.316 µM, first compound 0.03 µM) was 93.7% and the viability, T/C (second compound 0.316 µM, first compound 0.0949 µM) was 87.6%. The viability, T/C (second compound 0.316 µM, first compound 0.3 µM) was 92.7%, the viability, T/C (second compound 0.316 µM, first compound 0.949 µM) was 87.1% and the viability, T/C (second compound 0.316 µM, first compound 3 µM) was 74.6%. The viability, T/C (second compound 1 µM, first compound 0.00949 µM) was 96.6%, the viability, T/C (second compound 1 µM, first compound 0.03 µM) was 98.1% and the viability, T/C (second compound 1 µM, first compound 0.0949 µM) was 90.3%. For the same compound, the viability, T/C (second compound 1 µM, first compound 0.3 µM) was 86.1%, the viability, T/C (second compound 1 µM, first compound 0.949 µM) was 90.1% and the viability, T/C (second compound 1 µM, first compound 3 µM) was 71.5%. For the same compound, the viability, T/C (second compound 3.16 µM, first compound 0.00949 µM) was 92.4%, the viability, T/C (second compound 3.16 µM, first compound 0.03 µM) was 87.7% and the viability, T/C (second compound 3.16 µM, first compound 0.0949 µM) was 94.3%. The viability, T/C (second compound 3.16 µM, first compound 0.3 µM) was 89%, the viability, T/C (second compound 3.16 µM, first compound 0.949 µM) was 79.7% and the viability, T/C (second compound 3.16 µM, first compound 3 µM) was 76.8%. For the same compound, the viability, T/C (second compound 10 µM, first compound 0.00949 µM) was 75.2%, the viability, T/C (second compound 10 µM, first compound 0.03 µM) was 81.3% and the viability, T/C (second compound 10 µM, first compound 0.0949 µM) was 80.8%. It also gave a viability, T/C (second compound 10 µM, first compound 0.3 µM) of 73.8%, a viability, T/C (second compound 10 µM, first compound 0.949 µM) of 80.5% and a viability, T/C (second compound 10 µM, first compound 3 µM) of 53.1%.
